IC50 data for 22 compounds are collected here from patent US8148391B2 (Cephalon, Inc., priority 2006, dated 2012).

Where two headings read alike, the source gives them in different places.

Experiment [1] has as its target T1, baculovirus-expressed ALK (Homo sapiens, UniProt Q9UM73).
T1 construct: host or cells: baculovirus expression system
Kind of experiment: ALK Kinase Assay (ELISA-type, time-resolved fluorescence). Format: biochemical. The gist of the method:
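Plates coated with phospholipase C-γ substrate (10 μg/mL in TBS); reaction started with 30 ng/ml ALK and run 15 min at 37° C. Phosphorylated substrate detected with Eu-N1-labeled PT66 antibody. IC50 from sigmoidal variable-slope fit of percent inhibition vs log concentration.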

Experiment [2] has as its target T2, c-Met (cytoplasmic domain) (Homo sapiens, UniProt P08581).
T2 construct: 10 ng/mL c-Met (cytoplasmic domain, Invitrogen Corporation #PV3143); purchased Invitrogen Corporation PV3143
Kind of experiment: c-Met Kinase Assay (same methods as for ALK, with modifications). Format: biochemical. Summed up: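 Europium-labeled PT66 antibody (Eu-N1) detects substrate phosphorylation on wells coated with phospholipase C-γ at 10 μg/mL. The kinase, the cytoplasmic domain of c-Met at 10 ng/mL, starts the reaction, which proceeds 15 minutes at 37° C.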

[3] abbreviates: 1 μM ATP (Km level), 30 ng/ml ALK, 37° C., 15 minutes, read-out: ALK Activity (ALK kinase inhibition, IC50 class).
Where [4] appears, read: 1 μM ATP (Km level), 10 ng/mL c-Met, read-out: cMet Activity (c-Met kinase inhibition, IC50 class).
[5] abbreviates: ALK kinase inhibition, 1 μM ATP (Km level), read-out: ALK Activity.
[6] abbreviates: c-Met kinase inhibition, 1 μM ATP (Km level), read-out: cMet Activity.
Where [7] appears, read: ALK kinase inhibition, 1 μM ATP, read-out: ALK Activity.
[8] abbreviates: c-Met kinase inhibition, 1 μM ATP, read-out: cMet Activity.
[9] abbreviates: 1 μM ATP (Km level), read-out: ALK Activity (ALK Kinase Inhibition, IC50).
[10] abbreviates: 1 μM ATP (Km level), read-out: cMet Activity (c-Met Kinase Inhibition, IC50).

T1 sequence (Q9UM73 19-1620): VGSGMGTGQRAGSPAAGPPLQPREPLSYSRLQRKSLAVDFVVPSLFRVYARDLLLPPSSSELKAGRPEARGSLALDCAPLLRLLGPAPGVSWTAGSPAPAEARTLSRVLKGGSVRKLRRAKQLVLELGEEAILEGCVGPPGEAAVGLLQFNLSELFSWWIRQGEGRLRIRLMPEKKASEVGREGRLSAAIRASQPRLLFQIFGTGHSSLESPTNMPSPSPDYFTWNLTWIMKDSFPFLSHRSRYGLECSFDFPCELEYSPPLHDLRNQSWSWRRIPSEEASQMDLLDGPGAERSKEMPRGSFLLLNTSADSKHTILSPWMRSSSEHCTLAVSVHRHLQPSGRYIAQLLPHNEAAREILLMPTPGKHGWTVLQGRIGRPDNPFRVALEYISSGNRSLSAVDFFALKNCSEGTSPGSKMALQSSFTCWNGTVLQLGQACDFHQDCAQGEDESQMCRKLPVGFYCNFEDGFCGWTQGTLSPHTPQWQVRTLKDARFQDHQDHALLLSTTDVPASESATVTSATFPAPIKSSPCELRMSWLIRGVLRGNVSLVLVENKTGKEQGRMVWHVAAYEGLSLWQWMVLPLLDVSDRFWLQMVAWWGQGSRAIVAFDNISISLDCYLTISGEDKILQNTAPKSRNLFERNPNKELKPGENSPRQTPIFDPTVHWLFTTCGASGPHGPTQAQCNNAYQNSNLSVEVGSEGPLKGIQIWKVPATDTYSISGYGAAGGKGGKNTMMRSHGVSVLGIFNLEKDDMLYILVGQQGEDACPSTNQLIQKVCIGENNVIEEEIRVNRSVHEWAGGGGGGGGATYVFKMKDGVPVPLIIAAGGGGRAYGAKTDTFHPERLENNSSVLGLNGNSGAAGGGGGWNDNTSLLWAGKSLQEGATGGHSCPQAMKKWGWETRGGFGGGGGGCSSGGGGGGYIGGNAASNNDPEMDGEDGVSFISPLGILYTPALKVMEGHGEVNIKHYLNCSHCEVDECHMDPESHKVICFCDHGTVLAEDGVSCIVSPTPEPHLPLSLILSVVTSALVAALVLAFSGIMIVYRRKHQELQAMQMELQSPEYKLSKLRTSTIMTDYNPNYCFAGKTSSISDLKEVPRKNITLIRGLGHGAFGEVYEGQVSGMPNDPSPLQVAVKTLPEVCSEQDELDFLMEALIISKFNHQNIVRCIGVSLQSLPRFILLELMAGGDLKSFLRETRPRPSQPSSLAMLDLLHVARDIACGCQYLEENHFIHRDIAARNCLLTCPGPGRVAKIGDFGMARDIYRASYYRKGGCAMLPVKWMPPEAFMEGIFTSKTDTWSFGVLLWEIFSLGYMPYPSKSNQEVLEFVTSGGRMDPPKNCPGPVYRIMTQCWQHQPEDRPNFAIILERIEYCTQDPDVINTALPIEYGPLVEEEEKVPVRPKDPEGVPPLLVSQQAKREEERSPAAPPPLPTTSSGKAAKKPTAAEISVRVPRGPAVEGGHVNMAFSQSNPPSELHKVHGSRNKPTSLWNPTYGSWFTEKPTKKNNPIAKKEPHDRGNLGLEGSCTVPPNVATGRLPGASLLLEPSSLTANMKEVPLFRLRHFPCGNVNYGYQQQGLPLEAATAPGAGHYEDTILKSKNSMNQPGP
T2 sequence (P08581 956-1390 limits assumed): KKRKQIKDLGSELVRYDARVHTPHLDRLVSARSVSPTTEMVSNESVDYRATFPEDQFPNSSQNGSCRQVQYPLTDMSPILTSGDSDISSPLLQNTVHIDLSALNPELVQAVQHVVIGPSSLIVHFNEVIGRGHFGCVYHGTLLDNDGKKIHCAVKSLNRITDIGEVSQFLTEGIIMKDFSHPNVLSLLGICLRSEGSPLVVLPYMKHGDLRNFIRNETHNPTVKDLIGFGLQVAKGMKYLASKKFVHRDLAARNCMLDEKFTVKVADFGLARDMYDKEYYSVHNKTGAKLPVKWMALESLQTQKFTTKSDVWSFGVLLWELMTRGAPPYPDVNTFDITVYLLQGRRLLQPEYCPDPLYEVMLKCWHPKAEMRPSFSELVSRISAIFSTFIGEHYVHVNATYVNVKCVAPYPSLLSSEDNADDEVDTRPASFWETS

With `CNC(=O)c1ccc(Nc2nc(Nc3cc4c(cc3OC)CCN(C(COC)COC)CC4)ncc2Cl)c(OC)c1` [Example 1177, 4-{5-Chloro-2-[8-methoxy-3-(2-methoxy-1-methoxymethyl-ethyl)-2,3,4,5-tetrahydro-1H-benzo[d]azepin-7-ylamino]-pyrimidin-4-ylamino}-3-methoxy-N-methyl-benzamide], the IC50 in experiment [1] (setting [3]) is < 100 nM; in experiment [2] (setting [4]), > 10000 nM.
As for `CN1CCN(CC2CC2)Cc2ccc(Nc3ncc(Cl)c(N[C@@H]4CCCC[C@H]4NS(C)(=O)=O)n3)cc21` [Example 479, N-{(1R,2R)-2-[5-Chloro-2-(4-cyclopropylmethyl-1-methyl-2,3,4,5-tetrahydro-1H-benzo[e][1,4]diazepin-8-ylamino)-pyrimidin-4-ylamino]-cyclohexyl}-methanesulfonamide], the IC50 in experiment [1] (setting [5]) is < 100 nM; in experiment [2] (setting [6]) it was 1000 to 10000 nM.
In the case of `CCN1CCNCc2cc(OC)c(Nc3ncc(Cl)c(N[C@H]4[C@@H](C(N)=O)[C@@H]5C=C[C@H]4C5)n3)cc21` [Example 1460, (1S,2S,3R,4R)-3-[5-Chloro-2-(1-ethyl-7-methoxy-2,3,4,5-tetrahydro-1H-benzo[e][1,4]diazepin-8-ylamino)-pyrimidin-4-ylamino]-bicyclo[2.2.1]hept-5-ene-2-carboxylic acid amide], the IC50 in experiment [1] (setting [7]) was < 100 nM; in experiment [2] (setting [8]), > 10000 nM.
As to `COCCN1CCc2ccc(Nc3ncc(Cl)c(N[C@H]4CC[C@H](NS(C)(=O)=O)CC4)n3)cc2CC1` [Example 1378, trans-N-(4-{5-Chloro-2-[3-(2-methoxy-ethyl)-2,3,4,5-tetrahydro-1H-benzo[d]azepin-7-ylamino]-pyrimidin-4-ylamino}-cyclohexyl)-methanesulfonamide], the values for the IC50 in experiment [1] (setting [3]) and in experiment [2] (setting [4]) were 100 to 1000 nM and > 10000 nM, respectively.
Take `CC1(C)CCC(=O)Nc2cc(Nc3ncc(Cl)c(Nc4ccccc4OCCC#N)n3)ccc21` [Example 1238, 3-{2-[5-Chloro-2-(5,5-dimethyl-2-oxo-2,3,4,5-tetrahydro-1H-1-benzazepin-8-ylamino)-pyrimidin-4-ylamino]-phenoxy}-propionitrile]: the IC50 in experiment [1] (setting [3]) and in experiment [2] (setting [4]) was < 100 nM each time.
In the case of `CCNC(=O)c1ccccc1Nc1nc(Nc2ccc3c(c2)CCC(N2CCOCC2)CC3)ncc1Cl` (centres unmarked) [Example 866, 2-[5-Chloro-2-(7-morpholin-4-yl-6,7,8,9-tetrahydro-5H-benzocyclohepten-2-ylamino)-pyrimidin-4-ylamino]-N-ethyl-benzamide], the IC50 in experiment [1] (setting [9]) and in experiment [2] (setting [10]) was < 100 nM throughout.
In the case of `O=C1CCCc2ccc(Nc3ncc(Cl)c(Nc4c(F)cccc4OC4CCOC4)n3)cc2N1` (centres unmarked) [Example 1273, 8-{5-Chloro-4-[2-fluoro-6-(tetrahydro-furan-3-yloxy)-phenylamino]-pyrimidin-2-ylamino}-1,3,4,5-tetrahydro-1-benzazepin-2-one], the IC50 in experiment [1] (setting [3]) and in experiment [2] (setting [4]) was 100 to 1000 nM throughout.
As for `COc1ccc(Nc2nc(Nc3cc4c(cc3OC)CCN(CC(=O)N(C)C)CC4)ncc2Cl)c(NS(C)(=O)=O)c1` [Example 821, 2-{7-[5-Chloro-4-(2-methanesulfonylamino-4-methoxy-phenylamino)-pyrimidin-2-ylamino]-8-methoxy-1,2,4,5-tetrahydro-benzo[d]azepin-3-yl}-N,N-dimethyl-acetamide], the IC50 was < 100 nM in experiment [1] (setting [9]) and > 10000 nM in experiment [2] (setting [10]).
With `CC(=O)NCc1ccccc1Nc1nc(Nc2ccc3c(c2)CCOC(=O)N3C)ncc1Cl` [Example 1793, N-{2-[5-Chloro-2-(5-methyl-6-oxo-5,6,8,9-tetrahydro-7-oxa-5-aza-benzocyclohepten-2-ylamino)-pyrimidin-4-ylamino]-benzyl}-acetamide], the IC50 in experiment [1] (setting [7]) was in the range of 100 to 1000 nM; in experiment [2] (setting [8]), 1000 to 10000 nM.
Regarding `COCCOc1cccc(F)c1Nc1nc(Nc2ccc3c(c2)CCOC(=O)N3C)ncc1Cl` [Example 1778, 2-{5-Chloro-4-[2-fluoro-6-(2-methoxy-ethoxy)-phenylamino]-pyrimidin-2-ylamino}-5-methyl-8,9-dihydro-5H-7-oxa-5-aza-benzocyclohepten-6-one], the IC50 in experiment [1] (setting [7]) and in experiment [2] (setting [8]) was 100 to 1000 nM throughout.
With `COCCOC(=O)c1ccccc1Nc1nc(Nc2cc3c(cc2OC)CCC(NCCO)CC3)ncc1Cl` (centres unmarked) [Example 1093, 2-{5-Chloro-2-[7-(2-hydroxy-ethylamino)-3-methoxy-6,7,8,9-tetrahydro-5H-benzocyclohepten-2-ylamino]-pyrimidin-4-ylamino}-benzoic acid 2-methoxy-ethyl ester], the IC50 in experiment [1] (setting [3]) was < 100 nM; in experiment [2] (setting [4]), > 10000 nM.
`COCCN1CCN(C)c2ccc(Nc3ncc(Cl)c(N[C@@H]4CCCC[C@H]4NS(C)(=O)=O)n3)cc2C1` [Example 430, N-((1R,2R)-2-{5-Chloro-2-[4-(2-methoxy-ethyl)-1-methyl-2,3,4,5-tetrahydro-1H-benzo[e][1,4]diazepin-7-ylamino]-pyrimidin-4-ylamino}-cyclohexyl)-methanesulfonamide]: the IC50 is < 100 nM in experiment [1] (setting [5]) and 1000 to 10000 nM in experiment [2] (setting [6]).
With `COCCN1C(=O)CCC(C)(C)c2ccc(Nc3ncc(Cl)c(Nc4ccccc4OCC#N)n3)cc21` [Example 1582, (2-{5-Chloro-2-[1-(2-methoxy-ethyl)-5,5-dimethyl-2-oxo-2,3,4,5-tetrahydro-1H-benzo[b]azepin-8-ylamino]-pyrimidin-4-ylamino}-phenoxy)-acetonitrile], the results for the IC50 in experiment [1] (setting [7]) and in experiment [2] (setting [8]) were < 100 nM and 100 to 1000 nM, respectively.
For the compound `COc1cc2c(cc1Nc1ncc(Cl)c(Nc3ccccc3S(=O)(=O)C(C)C)n1)CCN(CCS(C)(=O)=O)CC2` [Example 1164, 5-Chloro-N*2*-[3-(2-methanesulfonyl-ethyl)-8-methoxy-2,3,4,5-tetrahydro-1H-benzo[d]azepin-7-yl]-N*4*-[2-(propane-2-sulfonyl)-phenyl]-pyrimidine-2,4-diamine], the IC50 in experiment [1] (setting [3]) was < 100 nM; in experiment [2] (setting [4]) it was 1000 to 10000 nM.
Take `COc1cc2c(cc1Nc1ncc(Cl)c(Nc3ccccc3S(=O)(=O)N3CC[C@H](C)C3)n1)CCN(CC(=O)N(C)C)CC2` [Example 856, 2-(7-{5-Chloro-4-[2-((S)-3-methyl-pyrrolidine-1-sulfonyl)-phenylamino]-pyrimidin-2-ylamino}-8-methoxy-1,2,4,5-tetrahydro-benzo[d]azepin-3-yl)-N,N-dimethyl-acetamide]: the IC50 in experiment [1] (setting [9]) is < 100 nM; in experiment [2] (setting [10]), 100 to 1000 nM.
In the case of `C#CCNC(=O)c1cc(F)cc(F)c1Nc1nc(Nc2ccc3c(c2)CCN(CCOC)CC3)ncc1Cl` [Example 1728, 2-{5-Chloro-2-[3-(2-methoxy-ethyl)-2,3,4,5-tetrahydro-1H-benzo[d]azepin-7-ylamino]-pyrimidin-4-ylamino}-3,5-difluoro-N-prop-2-ynyl-benzamide], the IC50 in experiment [1] (setting [7]) is 100 to 1000 nM; in experiment [2] (setting [8]), < 100 nM.
With `CNC(=O)c1cc(F)cc(F)c1Nc1nc(Nc2ccc3c(c2)N(C(C)=O)CCCC3(C)C)ncc1Cl` [Example 1608, 2-[2-(1-Acetyl-5,5-dimethyl-2,3,4,5-tetrahydro-1H-benzo[b]azepin-8-ylamino)-5-chloro-pyrimidin-4-ylamino]-3,5-difluoro-N-methyl-benzamide], the results for the IC50 in experiment [1] (setting [7]) and in experiment [2] (setting [8]) were 100 to 1000 nM and < 100 nM, respectively.
As to `COc1cc2c(cc1Nc1ncc(Cl)c(Nc3ccccc3S(=O)(=O)C(C)C)n1)CCN(CC(C)(F)F)CC2` [Example 828, 5-Chloro-N*2*-[3-(2,2-difluoro-propyl)-8-methoxy-2,3,4,5-tetrahydro-1H-benzo[d]azepin-7-yl]-N*4*-[2-(propane-2-sulfonyl)-phenyl]-pyrimidine-2,4-diamine], the values for the IC50 in experiment [1] (setting [9]) and in experiment [2] (setting [10]) were < 100 nM and > 10000 nM, respectively.
Take `CCN1CCN(CC)c2cc(Nc3ncc(Cl)c(N[C@@H]4[C@H](C(N)=O)[C@H]5C=C[C@@H]4C5)n3)ccc2C1` [Example 714, (2-exo,3-exo)-3-[5-Chloro-2-(1,4-diethyl-2,3,4,5-tetrahydro-1H-benzo[e][1,4]diazepin-8-ylamino)-pyrimidin-4-ylamino]-bicyclo[2.2.1}hept-5-ene-2-carboxylic acid amide]: the IC50 in experiment [1] (setting [9]) is < 100 nM; in experiment [2] (setting [10]), 1000 to 10000 nM.
Take `COc1cccc(C(=O)NCCC#N)c1Nc1nc(Nc2ccc3c(c2)C(C)(C)CCC(=O)N3)ncc1Cl` [Example 1061, 2-[5-Chloro-2-(5,5-dimethyl-2-oxo-2,3,4,5-tetrahydro-1H-benzo[b]azepin-7-ylamino)-pyrimidin-4-ylamino]-N-(2-cyano-ethyl)-3-methoxy-benzamide]: the IC50 was > 10000 nM in experiment [1] (setting [3]) and 1000 to 10000 nM in experiment [2] (setting [4]).
Consider `COc1cc2c(cc1Nc1ncc(Cl)c(Nc3ccccc3S(C)(=O)=O)n1)CCN(CCS(C)(=O)=O)CC2` [Example 1148, 5-Chloro-N*2*-[3-(2-methanesulfonyl-ethyl)-8-methoxy-2,3,4,5-tetrahydro-1H-benzo[d]azepin-7-yl]-N*4*-(2-methanesulfonyl-phenyl)-pyrimidine-2,4-diamine], for which the IC50 in experiment [1] (setting [3]) was < 100 nM; in experiment [2] (setting [4]), 1000 to 10000 nM.
With “5-Chloro-N*4*-(2-ethyl-4-morpholin-4-yl-phenyl)-N*2*-[7-(2,2,2-trifluoro-ethylamino)-6,7,8,9-tetrahydro-5H-benzocyclohepten-2-yl]-pyrimidine-2,4-diamine [Example 652]”, the IC50 in experiment [1] (setting [9]) is < 100 nM; in experiment [2] (setting [10]), > 10000 nM.
